Test results: patent publication US20050282788A1, “Pharmaceutical compositions comprising silicones and two solubilized active principles” (GALDERMA S.A., priority 2004, published 2005)

Experiments:
[1] = Stability of calcitriol in the (ethanol/cyclopentasiloxane) mixture (HPLC assay against a reference); format: physicochemical; details: 30 ppm calcitriol, 0.02% BHT
Experimental: (§1) The stability of calcitriol was tested in various solvents, including ethanol 100 and a 75%/25% ethanol 100/cyclomethicone mixture. b) Stability of Calcitriol in the (Ethanol/Cyclopentasiloxane) Mixture A 30 ppm solution of calcitriol in absolute ethanol to 100% is prepared in the presence of 0.02% of BHT. At the starting time (TO) the calcitriol concentration is taken to be 100%.

[2] = Stability of calcitriol in ethanol (HPLC assay against a reference); format: physicochemical; details: 30 ppm calcitriol in absolute ethanol, 0.02% BHT
Experimental: as §1, with “a)” for “b)”, “Ethanol:” for “the (Ethanol/Cyclopentasiloxane) Mixture”, “butylated hydroxytoluene (BHT).” for “BHT.”, “(T0)” for “(TO)”

Q: Which results are given for `C=C1/C(=C\C=C2/CCC[C@]3(C)[C@@H]([C@H](C)CCCC(C)(C)O)CC[C@@H]23)C[C@@H](O)C[C@@H]1O` [calcitriol]?
A: calcitriol concentration (T0 taken to be 100%) ([1]; +4° C., T2 weeks): 99.2%; calcitriol concentration (T0 taken to be 100%) ([1]; +4° C., T3 weeks): 99.6%; calcitriol concentration (T0 taken to be 100%) ([1]; +4° C., T4 weeks): 97.5%; calcitriol concentration (T0 taken to be 100%) ([1]; +30° C., T2 weeks): 93.8%; calcitriol concentration (T0 taken to be 100%) ([1]; +30° C., T4 weeks): 93.3%; calcitriol concentration (T0 taken to be 100%) ([1]; −18° C., T2 weeks): 100.4%; calcitriol concentration (T0 taken to be 100%) ([1]; −18° C., T3 weeks): 101.3%; calcitriol concentration (T0 taken to be 100%) ([1]; −18° C., T4 weeks): 99.2%; calcitriol concentration (T0 taken to be 100%) ([2]; +4° C., T1 week): 97.7%; calcitriol concentration (T0 taken to be 100%) ([2]; +4° C., T2 weeks): 98.6%; calcitriol concentration (T0 taken to be 100%) ([2]; +4° C., T3 weeks): 98.1%; calcitriol concentration (T0 taken to be 100%) ([2]; +4° C., T4 weeks): 97.7%; calcitriol concentration (T0 taken to be 100%) ([2]; +30° C., T2 weeks): 93.4%; calcitriol concentration (T0 taken to be 100%) ([2]; +30° C., T4 weeks): 93.0%; calcitriol concentration (T0 taken to be 100%) ([2]; −18° C., T1 week): 100.9%; calcitriol concentration (T0 taken to be 100%) ([2]; −18° C., T2 weeks): 100.5%; calcitriol concentration (T0 taken to be 100%) ([2]; −18° C., T3 weeks): 99.5%; calcitriol concentration (T0 taken to be 100%) ([2]; −18° C., T4 weeks): 99.5%
